Assay results published in PMC8864869, “A short peptide derived from pigment epithelial-derived factor exhibits an angioinhibitory effect” (BMC Ophthalmology, 2022).
Where no end group is shown, it is not given here.

Key:
RPMI8226 cells [1] = format: cell-based, human; conditions: for MTT value, VEGF-induced RPMI8226 cell proliferation: 10 ng/ml VEGF + 25 μM peptide, serum-free medium, solvent-treated/untreated cells set as 100%, three independent experiments
Experimental: Human multiple myeloma cells, RPMI8226 were purchased from Bioresource Collection and Research Center (Hsinchu, Taiwan). Cells were cultivated in RPMI1640 medium supplemented with 10% FBS, 50 μg/ml penicillin, 50 μg/ml streptomycin, and 2 mM L-glutamine at 37 °C in a 5% CO2 atmosphere. Cell viability was determined by an MTT assay. […] MTT stock solution added to medium alone was included as a negative control. Aliquots (450 μl) from each sample were transferred to a new well of a 48-well culture plate, 100 μl DMSO added with thorough mixing, and allowed to react at 37 °C for 20 min before reading the absorbance at 570 nm.

RPMI8226 cells [2] = experiment: Annexin V-FITC/PI double-staining apoptosis assay in RPMI8226 cells; format: cell-based, human
Experimental: (§1) Cell apoptosis was examined using a TACS annexin V-FITC kit according to the manufacturer’s instructions for in situ staining. The cell numbers were monitored by counterstaining with Hoechst 33342. Afterward, apoptosis was examined and photographed by a Zeiss epifluorescence microscope (× 100, 10 fields/sample). Images were recorded on Zeiss software.
Fig. 2 The 34-mer and 7-mer induce apoptosis of RPMI8226 cells. a Fluorescence microscopy of annexin V-FITC/PI double staining. Treatment of RPMI8226 cells was as described in Fig. 1. Apoptosis was determined by annexin V-FITC staining (green dots) and double stained with propidium iodide (red dots). A representative of three independent experiments is shown. b The percentage of apoptotic cells was quantified by dividing the number of annexin V-positive cells by the total number of cells counted by phase-contrast light microscopy. Control peptide indicates cells were treated with the 5-mer. Histograms show means ± SD. ^aP < 0.005 versus peptide solvent-treated cells. ^bP < 0.0002 versus VEGF-treated cells. ^cP < 0.001 versus 34-mer-treated cells
Fig. 3 The 7-mer induces JNK signaling to trigger RPMI8226 cell apoptosis. 3 × 10^5 cells were serum starved for 24 h and then exposed to 10 ng/ml VEGF and 25 μM 7-mer for the indicated time periods. a Western blotting was performed to detect the active phosphorylated forms of JNK (p-JNK) and p38 MAPK (p-p38), shown in the upper panels. Antibodies were then stripped and the blots were re-incubated with anti-JNK and anti-p38 MAPK antibodies (lower panels), respectively, to detect the levels of total JNK and p38 MAPK. b Densitometric analyses from three independent experiments are shown. c Cell were pretreated with 10 μM SP600125 or SB203580 for 10 min and then treated as described above for 24 h and apoptosis was quantified using the annexin V-FITC apoptosis detection kit. *P < 0.0001 versus 7-mer-treated cells

HUVECs [3] = experiment: Annexin V-FITC apoptosis assay in HUVECs; format: cell-based, human; conditions: 0.5% FBS, 16 h
Experimental: (§2) Cells were grown in Medium 200 with LSGS (supplement contains 1.9% fetal bovine serum, 3 ng/ml bFGF, 10 μg/ml heparin, 1 μg/ml hydrocortisone, and 10 ng/ml EGF). Culture plates were coated with 2% gelatin. Cells (passages 4–8) were cultured at 37 °C in a humidified atmosphere of 5% CO2. For peptide treatment, HUVECs were cultured in low serum (0.5% FBS) medium containing 20 ng/ml VEGF and 7-mer peptide (20 μM, unless otherwise specified).
as §1
(§3) The experiment was repeated three times. Magnification is × 40. b The 7-mer induces HUVEC apoptosis in the presence of VEGF. Cell apoptosis was analyzed using the Annexin V-FITC Apoptosis Detection kit according to the in situ staining protocol after treatment for 16 h. Double staining with an annexin V-FITC and the fluorescent dye Hoechst 33342 was used to visualize the apoptotic cells (green) and nuclei (blue), respectively. A representative result of four independent experiments is shown. The percentages of apoptotic cells were quantified. ^aP < 0.005 versus VEGF-treated cells

[4] = cited from earlier work; for anti-angiogenic and antitumor activities of human PEDF: previous studies
From the text: Pigment epithelial-derived factor (PEDF) was initially identified in the culture supernatant of human fetal retinal pigment epithelial cells, with the ability to promote neuronal differentiation of retinoblastoma Y79 cells. […] Presently, full-length PEDF is considered to be less suitable as an anti-angiogenic agent than PEDF-derived active fragments because of several issues, including antigenicity, s ... || Identification of angioinhibitory peptides derived from PEDF may be a promising strategy for improving the treatment of angiogenesis-related diseases. […] Here, we found for the first time that the 7-mer peptide (D64-S70), representing a minimal region within PEDF, reproduced the anti-VEGF effect, comparab ...

HUVECs [5] = experiment: Endothelial cell capillary-like tube formation assay; format: cell-based, human; conditions: 20 ng/ml VEGF, 10 μM 7-mer, matrigel, 0.5% FBS, 6 h
Experimental: as §2
Growth factor-reduced matrigel was pipetted into pre-chilled 24-well plates (150 μl matrigel per well) and polymerized for 45 min at 37 °C. HUVECs (4 × 10^4 per well) in low serum (0.5% FBS) medium were treated with 20 ng/ml VEGF and 7-mer (10 μM) in matrigel coated plates. After 6 h of incubation, tubular structures were photographed. Images were captured using a Cannon camera on a Zeiss inverted microscope with magnification × 40.
as §3, with “A representative result of four independent experiments is shown.” left out

[6] = system: p53, Bax, p21, cleaved caspase-3; experiment: Western blot of p53, Bax, p21 and cleaved caspase-3 in RPMI8226 cells; format: cell-based, human; conditions: 10 μM inhibitor pretreatment, then VEGF + 25 μM 7-mer
From the text: Cell lysis and SDS–PAGE were as described previously. Antibodies used in this study were for active p38 MAPK and active JNK (Promega, Madison, WI), p38 MAPK/SAPK2, JNK (Upstate Biotechnology, Lake Placid, NY), p53 (Chemicon, Temecula, CA), bax, p21, cleaved caspase-3 and β-actin (Abcam Ltd., Cambridge, UK). Proteins of interest were detected using the appropriate IgG-horseradish peroxidase-linked secondary antibody (Santa Cruz Biotechnology) and enhanced chemiluminescence reagent (Amersham, Arlington Heights, IL). X-ray films were scanned on a model GS-700 Imaging Densitometer (Bio-Rad, Hercules, CA) and analyzed with Labworks 4.0 software. For quantification, blots from at least three independent experiments were used.
Fig. 4 The 7-mer induces JNK signaling to trigger p53/bax/p21^Waf1 expression in RPMI8226 cells. a and b Cell treatments were as described in Fig. 3. Cell lysates were then prepared for western blot analysis of p53, Bax, and p21. Representative blots and densitometric analyses from three independent experiments are shown. ^*P < 0.001 versus 7-mer-treated cells

Molecule: VEGF
- MTT value, RPMI8226 cells with VEGF alone (RPMI8226 cells [1]; 10 ng/ml VEGF without peptide, 24 h, untreated cells set as 100%, mean ± SD): 120 ± 3.9%
- apoptotic (annexin V+) RPMI8226 cells with VEGF alone (RPMI8226 cells [2]; 10 ng/ml VEGF, serum-free, serum deprivation alone 14.0 ± 1.7%): 6.5 ± 1.1%
- apoptotic HUVECs, VEGF-treated only (HUVECs [3]; 20 ng/ml VEGF): 6.3 ± 1.6%

Molecule: 23-mer: PEDF fragment A55-N77 of previous studies (AAAVSNFGYDLYRVRSSTSPTTN; UniProt P36955 55-77, looked up, fragment)
- anti-angiogenic and antitumor activities of human PEDF [4]: devoid of PEDF activity

Molecule: 7-mer L65 alanine substitution: 7-mer with single alanine substitution of L65 (DAYRVRS; ends and bridges not checked; UniProt P36955 64-70, looked up, variant L65A)
- MTT value, VEGF-induced RPMI8226 cell proliferation (RPMI8226 cells [1]; 24 h, mean ± SD): 74 ± 0.9%

Molecule: 7-mer D64 alanine substitution: 7-mer with single alanine substitution of D64 (ALYRVRS; ends and bridges not checked; UniProt P36955 64-70, looked up, variant D64A)
- MTT value, VEGF-induced RPMI8226 cell proliferation (RPMI8226 cells [1]; 24 h, mean ± SD): 69 ± 3.5%

Molecule: 34-mer: PEDF amino acid positions Asp44-Asn77, N-acetylated, C-amidated (Ac-DPFFKVPVNKLAAAVSNFGYDLYRVRSSTSPTTN-NH2; UniProt P36955 44-77, looked up, fragment) [reference compound]
- neurotrophic activity [4]: no neurotrophic activity
- anti-angiogenic and antitumor activities of human PEDF [4]: preserve the anti-angiogenic and antitumor activities of human PEDF
- cytotoxic effect on RPMI8226 cells in the absence of VEGF (RPMI8226 cells [1]): neither peptide had a significant cytotoxic effect
- MTT value, VEGF-induced RPMI8226 cell proliferation (RPMI8226 cells [1]; 24 h, mean ± SD): 84 ± 4.0%
- dose dependence of cell viability of VEGF-treated RPMI8226 cells (RPMI8226 cells [1]; 1, 5, 10 and 25 μM peptide with VEGF, MTT): cell viability decreased significantly with the 34-mer treatment at 10 and 25 μM, but not at 1 and 5 μM
- VEGF-stimulated tube-like network of HUVECs (HUVECs [5]): marked decrease of the VEGF-stimulated tube-like network
- apoptotic (annexin V+) RPMI8226 cells (RPMI8226 cells [2]; 10 ng/ml VEGF + 25 μM peptide, 24 h, serum-free, early + late apoptosis, mean ± SD, three independent experiments): 25.1 ± 2.2%
- apoptotic HUVECs (annexin V-FITC) (HUVECs [3]; 20 ng/ml VEGF + peptide (20 μM), four independent experiments): 20.1 ± 4.4%

Molecule: 18-mer: PEDF fragment Asn60-Asn77 of previous studies (NFGYDLYRVRSSTSPTTN; UniProt P36955 60-77, looked up, fragment)
- neurotrophic activity [4]: no neurotrophic activity
- anti-angiogenic and antitumor activities of human PEDF [4]: preserve the anti-angiogenic and antitumor activities of human PEDF

Molecule: D64N/L65V double mutant of the 7-mer: 7-mer with D64N/L65V double mutation (NVYRVRS; ends and bridges not checked; UniProt P36955 64-70, looked up, variant D64N L65V)
- MTT value, VEGF-induced RPMI8226 cell proliferation (RPMI8226 cells [1]; 24 h, mean ± SD): 117 ± 4.1%

Molecule: Oc1c2ccccc2c2c3c(cccc13)N=N2 [SP600125, reference compound]
- 7-mer-induced increases of p53, bax, p21 and cleaved caspase-3 after inhibitor pretreatment [6]: significantly inhibited
- 7-mer-induced RPMI8226 cell apoptosis after inhibitor pretreatment (RPMI8226 cells [2]; 10 μM inhibitor for 10 min, then 10 ng/ml VEGF + 25 μM 7-mer for 24 h, 7-mer alone 38.6 ± 2.1%): 11.6 ± 1.5%

B1: PEDF: a 50 kDa secreted glycoprotein (protein, UniProt P36955 20-418, looked up)
Pigment epithelium-derived …: QNPASPPEEGSPDPDSTGALVEEEDPFFKVPVNKLAAAVSNFGYDLYRVRSSTSPTTNVLLSPLSVATALSALSLGAEQRTESIIHRALYYDLISSPDIHGTYKELLDTVTAPQKNLKSASRIVFEKKLRIKSSFVAPLEKSYGTRPRVLTGNPRLDLQEINNWVQAQMKGKLARSTKEIPDEISILLLGVAHFKGQWVTKFDSRKTSLEDFYLDEERTVRVPMMSDPKAVLRYGLDSDLSCKIAQLPLTGSMSIIFFLPLKVTQNLTLIEESLTSEFIHDIDRELKTVQAVLTVPKLKLSYEGEVTKSLQEMKLQSLFDSPDFSKITGKPIKLTQVEHRAGFEWNEDGAGTTPSPGLQPAHLTFPLDYHLNQPFIFVLRDTDTGALLFIGKILDPRGP
- MTT value, VEGF-induced RPMI8226 cell proliferation (RPMI8226 cells [1]; 24 h, mean ± SD): 93 ± 3.8%
